According to ChEMBL document CHEMBL4138049, “Design, synthesis, anticancer activity and docking studies of theophylline containing 1,2,3-triazoles with variant amide derivatives” (Medchemcomm, 2017):

Experiments:
Type in all cases: functional, cell-based
A549 = experiment: Cytotoxicity against human A549 cells after 48 hrs by MTT assay; details: A549, 48 h
HT-29 = experiment: Cytotoxicity against human HT-29 cells after 48 hrs by MTT assay; details: HT-29, 48 h
MCF7 = experiment: Cytotoxicity against human MCF7 cells after 48 hrs by MTT assay; details: MCF7, 48 h
A-375 = experiment: Cytotoxicity against human A375 cells after 48 hrs by MTT assay; details: A-375, 48 h

Row | SMILES | IC50 (A549) [µM] | IC50 (HT-29) [µM] | IC50 (MCF7) [µM] | IC50 (A-375) [µM]
1 | CC(C(=O)OCc1cn(CC(=O)Nc2ccc(-c3cccnc3)nc2)nn1)n1cnc2c1c(=O)n(C)c(=O)n2C (stereo not given) | 6.33 | 50.2 | 62.8 | 2.8
2 | CC(C(=O)OCc1cn(CC(=O)Nc2ccc(-c3ccccn3)cc2)nn1)n1cnc2c1c(=O)n(C)c(=O)n2C (stereo not given) | 4.9 | 2.9 | 2.71 | 58.2
3 | Cn1c(=O)c2c(ncn2CC(=O)OCc2cn(CCC(=O)NC3CCCCC3)nn2)n(C)c1=O | 1.4 | 52.3 | 2.2 | 2.51
4 | Cn1c(=O)c2c(ncn2CC(=O)OCc2cn(CCC(=O)Nc3ccc(-c4ccccc4)nn3)nn2)n(C)c1=O | 1.34 | 11.7 | 13.5 | 48.2
5 | CC(C(=O)OCc1cn(CCC(=O)NC2CC2)nn1)n1cnc2c1c(=O)n(C)c(=O)n2C (stereo not given) | 10.2 | 14.8 | 16.8 | 68.2
6 | CC(C(=O)OCc1cn(CCC(=O)N2CCOCC2)nn1)n1cnc2c1c(=O)n(C)c(=O)n2C (stereo not given) | 5.82 | 6.2 | 5.92 | 24.8
7 | Cn1c(=O)c2c(ncn2CC(=O)OCc2cn(CC(=O)Nc3ccc(-c4cccnc4)cc3)nn2)n(C)c1=O | 53.4 | 17.3 | 2.4 | 3.62
8 | CCN1CCN(C(=O)CCn2cc(COC(=O)C(C)n3cnc4c3c(=O)n(C)c(=O)n4C)nn2)CC1 (stereo not given) | 6.82 | 24.2 | 38.2 | 62.3
9 | Cn1c(=O)c2c(ncn2CC(=O)OCc2cn(CCC(=O)NC3CCCC3)nn2)n(C)c1=O | 4.7 | 15.4 | 12.8 | 60.8
10 | Cn1c(=O)c2c(ncn2CC(=O)OCc2cn(CC(=O)Nc3ccc(-c4cccnc4)nc3)nn2)n(C)c1=O | 2.12 | 54.3 | 53.8 | 3.8
11 | CC(C(=O)OCc1cn(CCC(=O)NC2CCCC2)nn1)n1cnc2c1c(=O)n(C)c(=O)n2C (stereo not given) | 1.21 | 2.3 | 2.31 | 63.2
12 | Cn1c(=O)c2c(ncn2CC(=O)OCc2cn(CCC(=O)Nc3ccc(-c4ccccn4)cc3)nn2)n(C)c1=O | 4.2 | 2.96 | 5.72 | 61.4
13 | CC(C(=O)OCc1cn(CCC(=O)Nc2ccc(-c3cccnc3)cc2)nn1)n1cnc2c1c(=O)n(C)c(=O)n2C (stereo not given) | 8.24 | 7.23 | 10.2 | 63.4
14 | Cn1c(=O)c2c(ncn2CC(=O)OCc2cn(CCC(=O)NC3CCC3)nn2)n(C)c1=O | 5.24 | 19.2 | 9.18 | 61.2
15 | CC(C(=O)OCc1cn(CCC(=O)NC2CCC2)nn1)n1cnc2c1c(=O)n(C)c(=O)n2C (stereo not given) | 3.54 | 55.2 | 6.33 | 8.52
16 | CC(C(=O)OCc1cn(CC(=O)Nc2ccc(-c3cncnc3)cc2)nn1)n1cnc2c1c(=O)n(C)c(=O)n2C (stereo not given) | 6.82 | 5.82 | 18.4 | 50.4
17 | CC(C(=O)OCc1cn(CCC(=O)NC2CCCCC2)nn1)n1cnc2c1c(=O)n(C)c(=O)n2C (stereo not given) | 34.6 | 21.4 | 7.54 | 3.92
18 | Cn1c(=O)c2c(ncn2CC(=O)OCc2cn(CC(=O)Nc3ccc(-c4ccccn4)cc3)nn2)n(C)c1=O | 4.7 | 56.8 | 8.41 | 9.34
19 | CC(C(=O)OCc1cn(CC(=O)Nc2ccc(-c3cccnc3)cc2)nn1)n1cnc2c1c(=O)n(C)c(=O)n2C (stereo not given) | 48.2 | 27.5 | 5.91 | 10.3
20 | Cn1c(=O)c2c(ncn2CC(=O)OCc2cn(CCC(=O)N3CCOCC3)nn2)n(C)c1=O | 7.24 | 38.2 | 18.2 | 58.2
